Experimental data reported in patent US12240862B2, “Inhibitors of peptidylarginine deiminases” (Gilead Sciences, Inc., priority 2020, dated 2025).

Target: T1, human PAD4 (Homo sapiens, UniProt Q9UM07)
T1 construct: human PAD4 (NM_012387), A2P663, was PCR amplified; His-SUMO (N, cleaved yes); made in house; host or cells: E. coli BL21(DE3)
Assay: In vitro PAD4 BAEE biochemical assay
Settings: human PAD4, BAEE substrate; 5 nM PAD4, 2 mM calcium chloride, 3 mM BAEE; geometric mean of multiple experiments
Outline: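 Ammonia generated from BAEE serves as the readout, measured by o-phthalaldehyde after EDTA termination. Final conditions: 5 nM human PAD4 (SUMO tag cleaved), 2 mM CaCl2, 3 mM BAEE, pH 7.6 MOPS buffer, 25 °C for 2 h following a 30-min compound preincubation.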

T1 sequence (Q9UM07 2-663): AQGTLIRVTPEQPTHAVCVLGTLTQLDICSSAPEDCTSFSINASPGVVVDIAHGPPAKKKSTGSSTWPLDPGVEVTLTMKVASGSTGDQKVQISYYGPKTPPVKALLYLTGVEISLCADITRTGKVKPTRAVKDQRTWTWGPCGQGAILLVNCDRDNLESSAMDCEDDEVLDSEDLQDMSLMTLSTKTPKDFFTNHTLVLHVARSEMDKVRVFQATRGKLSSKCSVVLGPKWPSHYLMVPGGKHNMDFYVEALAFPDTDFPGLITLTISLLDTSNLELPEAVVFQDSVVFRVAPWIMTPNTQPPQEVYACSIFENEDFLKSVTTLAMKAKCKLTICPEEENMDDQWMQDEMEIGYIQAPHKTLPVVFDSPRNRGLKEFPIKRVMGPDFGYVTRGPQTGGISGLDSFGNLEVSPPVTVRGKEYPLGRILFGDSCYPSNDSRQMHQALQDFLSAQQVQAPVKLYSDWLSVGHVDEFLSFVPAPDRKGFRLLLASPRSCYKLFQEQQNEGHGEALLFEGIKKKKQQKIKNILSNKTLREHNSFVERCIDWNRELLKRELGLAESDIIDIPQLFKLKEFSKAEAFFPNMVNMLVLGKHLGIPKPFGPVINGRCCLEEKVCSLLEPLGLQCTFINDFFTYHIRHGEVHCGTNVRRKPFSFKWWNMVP

IC50	Compound
77.3 nM	COc1cc(C(=O)N2[C@H]3CC[C@@H]2[C@H](N)C3)cc2nc(-c3cc4ccc([C@@H](C)NC(=O)NCc5ccncc5)nc4n3CC3CC3)c(C)n12 [Example 223, 1-[(1~{R})-1-[2-[7-[(1~{R},2~{R},4~{S})-2-amino-7-azabicyclo[2.2.1]heptane-7-carbonyl]-5-methoxy-3-methylimidazo [1,2-a]pyridin-2-yl]-1-(cyclopropylmethyl)pyrrolo [2,3-b]pyridin-6-yl]ethyl]-3-(pyridin-4-ylmethyl)urea]
135 nM	COc1cc(C(=O)N2CCC[C@@H](N)C2)cc2nc(-c3cc4ccc([C@@H](C)NC(=O)N(C)C)nc4n3CC3CC3)c(C)n12 [Example 253, 3-[(1~{R})-1-[2-[7-[(3~{R})-3-aminopiperidine-1-carbonyl]-5-methoxy-3-methylimidazo[1,2-a]pyridin-2-yl]-1-(cyclopropylmethyl)pyrrolo [2,3-b]pyridin-6-yl]ethyl]-1,1-dimethylurea]
194 nM	CS(=O)(=O)N(c1ccc2cc(-c3nc4cc(C(=O)N5CCC[C@@H](N)C5)ccn4c3CC3CC3)n(CC3CC3)c2n1)C(F)F [Example 438, ~{N}-[2-[7-[(3~{R})-3-aminopiperidine-1-carbonyl]-3-(cyclopropylmethyl)imidazo [1,2-a]pyridin-2-yl]-1-(cyclopropylmethyl)pyrrolo [2,3-b]pyridin-6-yl]-~{N}-(difluoromethyl) methanesulfonamide]
458 nM	COc1cc(C(=O)N2[C@H]3CC[C@@H]2[C@H](N)C3)cc2nc(-c3cc4ccc(C5CCN(C(=O)C(C)(C)C)CC5)nc4n3CC3CC3)c(C)n12 [Example 526, 1-[4-[2-[7-[(1~{R},2~{R}, 4~{S})-2-amino-7-azabicyclo[2.2.1]heptane-7-carbonyl]-5-methoxy-3-methylimidazo[1,2-a]pyridin-2-yl]-1-(cyclopropylmethyl)pyrrolo [2,3-b]pyridin-6-yl]piperidin-1-yl]-2,2-dimethylpropan-1-one]
48.6 nM	COc1cc(C(=O)N2[C@H]3CC[C@@H]2[C@H](N)C3)cc2nc(-c3cc4ccc([C@@H](C)NC(=O)N5CCC(C(=O)O)C5)nc4n3CC3CC3)c(C)n12 (some centres unmarked) [Example 228]
888 nM	COc1cc(C(=O)N2CC[C@H]3OCCN[C@H]3C2)cc2nc(-c3cc4ccc(N(C(F)F)S(C)(=O)=O)nc4n3CC3CC3)c(C3CC3)n12 [Example 384, ~{N}-[2-[7-[(4~{a}~{S},8~{a}~{R})-2,3,4,4~{a},5,7,8,8~{a}-octahydropyrido[4,3-b][1,4]oxazine-6-carbonyl]-3-cyclopropyl-5-methoxyimidazo[1,2-a]pyridin-2-yl]-1-(cyclopropylmethyl)pyrrolo [2,3-b]pyridin-6-yl]-~{N}-(difluoromethyl) methanesulfonamide]
403 nM	COc1cc(C(=O)N2CCC3CC3(N)C2)cc2nc(-c3cc4ccc(N(C(F)F)S(C)(=O)=O)nc4n3CC3CC3)c(C)n12 (centres unmarked) [Example 365, ~{N}-[2-[7-(1-amino-3-azabicyclo[4.1.0]heptane-3-carbonyl)-5-methoxy-3-methylimidazo [1,2-a]pyridin-2-yl]-1-(cyclopropylmethyl)pyrrolo [2,3-b]pyridin-6-yl]-~{N}-(difluoromethyl) methanesulfonamide]
76.3 nM	COc1cc(C(=O)N2[C@H]3CC[C@@H]2[C@H](N)C3)cc2nc(-c3cc4ccc([C@@H](C)NC(=O)C(C)(C)C)nc4n3CC3CC3)c(C)n12 [Example 177, N—((R)-1-(2-(7-((1R,2R,4S)-2-amino-7-azabicyclo[2.2.1]heptane-7-carbonyl)-5-methoxy-3-methylimidazo[1,2-a]pyridin-2-yl)-1-(cyclopropylmethyl)-1H-pyrrolo[2,3-b]pyridin-6-yl)ethyl)pivalamide]
344 nM	COc1cc(C(=O)N2[C@H]3CC[C@@H]2[C@H](N)C3)cc2nc(-c3cc4ccc(C5CCCN(C(=O)N6CCCC6)C5)nc4n3CC3CC3)c(C)n12 (some centres unmarked) [Example 518, [(1~{R},2~{R},4~{S})-2-amino-7-azabicyclo [2.2.1]heptan-7-yl]-[2-[1-(cyclopropylmethyl)-6-[1-(pyrrolidine-1-carbonyl)piperidin-3-yl]pyrrolo [2,3-b]pyridin-2-yl]-5-methoxy-3-methylimidazo [1,2-a]pyridin-7-yl] methanone]
156 nM	COc1cc(C(=O)N2C[C@H](N)CC[C@@H]2C)cc2nc(-c3cc4ccc(N(C(F)F)S(C)(=O)=O)nc4n3CC3CC3)c(C)n12 [Example 412, ~{N}-[2-[7-[(2~{S},5~{R})-5-amino-2-methylpiperidine-1-carbonyl]-5-methoxy-3-methylimidazo [1,2-a]pyridin-2-yl]-1-(cyclopropylmethyl)pyrrolo-[2,3b]pyridin-6-yl]-~{N}-(difluoromethyl) methanesulfonamide]
46300 nM	COc1cc(C(=O)N2C[C@@H]3CCNCC32)cc2nc(-c3cc4ccc(N(C(F)F)S(C)(=O)=O)nc4n3CC3CC3)c(C)n12 (some centres unmarked) [Example 287, ~{N}-[1-(cyclopropylmethyl)-2-[7-[(6~{S},8~{R})-3,8-diazabicyclo[4.2.0]octane-8-carbonyl]-5-methoxy-3-methylimidazo[1,2-a]pyridin-2-yl]pyrrolo[2,3-b]pyridin-6-yl]-~{N}-(difluoromethyl) methanesulfonamide]
79.1 nM	COc1cc(C(=O)N2[C@H]3CC[C@@H]2[C@H](N)C3)cc2nc(-c3cc4ccc([C@@H](C)NC(=O)N(C)Cc5cccc(=O)[nH]5)nc4n3CC3CC3)c(C)n12 [Example 220, 3-[(1~{R})-1-[2-[7-[(1~{R},2~{R},4~{S})-2-amino-7-azabicyclo[2.2.1]heptane-7-carbonyl]-5-methoxy-3-methylimidazo [1,2-a]pyridin-2-yl]-1-(cyclopropylmethyl)pyrrolo [2,3-b]pyridin-6-yl]ethyl]-1-methyl-1-[(6-oxo-1~{H}-pyridin-2-yl)methyl]urea]
61.6 nM	COc1cc(C(=O)N2[C@H]3CC[C@@H]2[C@H](N)C3)cc2nc(-c3cc4ccc([C@@H](C)N5CCCC5=O)nc4n3CC3CC3)c(C)n12 [Example 276, 1-[(1~{R})-1-[2-[7-[(1~{R},2~{R},4~{S})-2-amino-7-azabicyclo[2.2.1]heptane-7-carbonyl]-5-methoxy-3-methylimidazo [1,2-a]pyridin-2-yl]-1-(cyclopropylmethyl)pyrrolo [2,3-b]pyridin-6-yl]ethyl]pyrrolidin-2-one]
50.2 nM	COc1cc(C(=O)N2[C@H]3CC[C@@H]2[C@H](N)C3)cc2nc(-c3cc4ccc([C@@H](C)NC(=O)N5CCCC5)nc4n3CC3CC3)c(C)n12 [Example 251, N—((R)-1-(2-(7-((1R,2R,4S)-2-amino-7-azabicyclo[2.2.1]heptane-7-carbonyl)-5-methoxy-3-methylimidazo[1,2-a]pyridin-2-yl)-1-(cyclopropylmethyl)-1H-pyrrolo[2,3-b]pyridin-6-yl)ethyl)pyrrolidine-1-carboxamide]
253 nM	COc1cc(C(=O)N2CCC[C@@H](N)C2)cc2nc(-c3cc4ccc(N(C(F)F)S(=O)(=O)C5CC5)nc4n3CC3CC3)c(C)n12 [Example 413, ~{N}-[2-[7-[(3~{R})-3-aminopiperidine-1-carbonyl]-5-methoxy-3-methylimidazo [1,2-a]pyridin-2-yl]-1-(cyclopropylmethyl)pyrrolo [2,3-b]pyridin-6-yl]-~{N}-(difluoromethyl) cyclopropanesulfonamide]
128 nM	COc1cc(C(=O)N2CCC[C@@H](N)C2)cc2nc(-c3cc4ccc(C(C)CC(=O)N(C)C)nc4n3CC3CC3)c(C)n12 (some centres unmarked) [Example 536, 3-[2-[7-[(3~{R})-3-aminopiperidine-1-carbonyl]-5-methoxy-3-methylimidazo[1,2-a]pyridin-2-yl]-1-(cyclopropylmethyl)pyrrolo[2,3-b]pyridin-6-yl]-~{N},~{N}-dimethylbutanamide]
8360 nM	COc1cc(C(=O)N[C@H]2CNCC[C@@H]2C)cc2nc(-c3cc4ccc(N(C(F)F)S(C)(=O)=O)nc4n3CC3CC3)c(C)n12 [Example 288, 2-[1-(cyclopropylmethyl)-6-[difluoromethyl (methylsulfonyl)amino]pyrrolo[2,3-b]pyridin-2-yl]-5-methoxy-3-methyl-~{N}-[(3~{R},4~{S})-4-methylpiperidin-3-yl]imidazo[1,2-a]pyridine-7-carboxamide]
1090 nM	COc1cc(C(=O)N2CCC[C@@H](N)C2)cc2nc(-c3cc4ccc(C(NC(C)=O)C5CC5)nc4n3CC3CC3)c(C)n12 (stereo partly drawn) [Example 194, N-((2-(7-((R)-3-aminopiperidine-1-carbonyl)-5-methoxy-3-methylimidazo[1,2-a]pyridin-2-yl)-1-(cyclopropylmethyl)-1H-pyrrolo[2,3-b]pyridin-6-yl)(cyclopropyl)methyl)acetamide]
369 nM	COc1cc(C(=O)N2C[C@H](N)C[C@@H](F)C2)cc2nc(-c3cc4ccc([C@@H](C)NC(=O)C56CC(F)(C5)C6)nc4n3CC3CC3)c(C)n12 [Example 36, ~{N}-[(1~{R})-1-[2-[7-[(3~{R}, 5~{R})-3-amino-5-fluoropiperidine-1-carbonyl]-5-methoxy-3-methylimidazo[1,2-a]pyridin-2-yl]-1-(cyclopropylmethyl)pyrrolo[2,3-b]pyridin-6-yl]ethyl]-3-fluorobicyclo[1.1.1] pentane-1-carboxamide]
220 nM	COc1cc(C(=O)N2[C@H]3CC[C@@H]2[C@H](N)C3)cc2nc(-c3cc4ccc(C5CCN(C(C)=O)CC5)nc4n3CC3CC3)c(C)n12 [Example 527, 1-[4-[2-[7-[(1~{R},2~{R}, 4~{S})-2-amino-7-azabicyclo[2.2.1]heptane-7-carbonyl]-5-methoxy-3-methylimidazo[1,2-a]pyridin-2-yl]-1-(cyclopropylmethyl)pyrrolo [2,3-b]pyridin-6-yl]piperidin-1-yl] ethenone]
